Data: publication PMC6934184, “Selective DNA-PKcs inhibition extends the therapeutic index of localized radiotherapy and chemotherapy” (The Journal of Clinical Investigation, 2019)

Molecular target: T1, MERTK (cMER) (Homo sapiens, UniProt Q12866)
T1 construct: purchased Thermo Fisher Scientific (Life Technologies) SelectScreen
Experiment: SelectScreen Z'LYTE
Assay type: biochemical
Outline: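 Percent values come from Thermo SelectScreen profiling of NU5455, combining activity and binding assays. CSF1R was run in Z'LYTE format at Km app ATP, and CAMK1 in Adapta format with ATP listed at 10.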

T1 sequence (Q12866 21-999): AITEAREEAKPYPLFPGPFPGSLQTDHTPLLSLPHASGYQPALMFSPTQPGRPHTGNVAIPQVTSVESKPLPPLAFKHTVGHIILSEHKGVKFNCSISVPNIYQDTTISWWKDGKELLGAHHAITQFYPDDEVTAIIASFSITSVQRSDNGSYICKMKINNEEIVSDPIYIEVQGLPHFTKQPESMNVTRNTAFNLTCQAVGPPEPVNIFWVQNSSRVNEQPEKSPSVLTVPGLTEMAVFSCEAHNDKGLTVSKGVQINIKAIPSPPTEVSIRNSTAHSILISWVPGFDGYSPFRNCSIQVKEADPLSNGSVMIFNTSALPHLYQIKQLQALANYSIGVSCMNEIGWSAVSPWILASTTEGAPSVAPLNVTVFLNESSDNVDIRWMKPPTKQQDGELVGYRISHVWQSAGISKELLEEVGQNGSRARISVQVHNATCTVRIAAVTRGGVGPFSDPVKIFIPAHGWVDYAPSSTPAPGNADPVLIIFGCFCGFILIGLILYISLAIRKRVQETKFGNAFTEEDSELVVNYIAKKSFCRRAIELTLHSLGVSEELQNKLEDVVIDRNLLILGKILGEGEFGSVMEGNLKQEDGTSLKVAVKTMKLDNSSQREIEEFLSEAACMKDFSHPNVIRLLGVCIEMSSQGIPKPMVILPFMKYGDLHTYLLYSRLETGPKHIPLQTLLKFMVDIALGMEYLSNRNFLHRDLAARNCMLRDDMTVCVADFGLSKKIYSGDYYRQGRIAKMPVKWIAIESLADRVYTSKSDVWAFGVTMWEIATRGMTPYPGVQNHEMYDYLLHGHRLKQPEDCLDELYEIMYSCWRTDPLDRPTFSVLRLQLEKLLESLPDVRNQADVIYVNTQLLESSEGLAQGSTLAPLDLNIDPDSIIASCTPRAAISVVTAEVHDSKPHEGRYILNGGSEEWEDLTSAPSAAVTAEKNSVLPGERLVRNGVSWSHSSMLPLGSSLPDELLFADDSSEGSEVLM

## CN(C(=O)CN1CCOCC1)c1ccc2sc3c(-c4cccc5c(=O)cc(N6CC7CCC(C6)O7)oc45)cccc3c2c1 [NU5455]
  inhibition at 1 µM: 8.3%
